29 compounds from patent US8119630B2 (Arrow Therapeutics Limited, priority 2002, dated 2012) can be followed below.

The subject of one series is RSV. The series is described as follows: XTT assay, RSV-infected Hep-2 cells. The format is cell-based, Respiratory Syncytial Virus (RSV). Conditions: Table 2, Examples 75 to 82 and 125 to 184, Hep-2 cells infected with RSV, 6 days at 37° C. As for the experimental part: Examples 75 to 82 and 125 to 184 were tested according to the protocol described below.
(§1) The inner 60 wells of 96 well tissue culture plates were seeded with Hep-2 cells at 4×10^4 cells/well for compound activity and toxicity studies in 100 μl of medium and incubated at 37° C. overnight or until nearing confluency.
Cells were infected with 25 μl RSV previously titrated to give 80% cell kill. To each well 25 μM of test compound were added. The final DMSO concentration was 0.5%. Some 200 μl of sterile distilled water were added to the outer wells of the plate and incubated at 37° C. for 6 days. Some 0.25 μl/ml PMS were added to stock […] solution, final conc. 25 μM PMS. Then 25 μl warmed XTT/PMS solution were added to each well and incubated for 1 hour at 37° C.
Maximum OD450nm reading (uninfected, untreated control cells) corresponded to 100% inhibition. Minimum OD450nm readings (infected control cells) corresponded to 0% inhibition. Log 10 concentration was plotted against OD450nm and IC50 values were calculated from either reading 50% value from graph or using regression analysis.
(In general: Formazan colour is commonly taken as a measure of viable cells.)

Another series deals with Hep-2 cells. The series is described as follows: Toxicity studies (XTT), Hep-2 cells. The format is cell-based. More on the design: TC50 (6d): unit not given beside the values. Conditions: for TC50 (6d): Table 2, Examples 75 to 82 and 125 to 184, 6d; for TC50 (2d): Table 2, Examples 75 to 82 and 125 to 184, 2d. As for the experimental part:
as §1
Cells were infected with 25 μl RSV previously titrated to give 80% cell kill. To each well 25 μM of test compound were added. The final DMSO concentration was 0.5%. […] Some 0.25 μl/ml PMS were added to stock […] solution, final conc. 25 μM PMS. Then 25 μl warmed XTT/PMS solution were added to each well and incubated for 1 hour at 37° C.

Setting [1] is: human respiratory syncytial virus, 144 h.

The term IC50 denotes the point on the concentration scale where inhibition reaches its midpoint. On to `O=C(Nc1ccsc1)NC1N=C(c2ccccc2)c2ccccc2NC1=O` (centres unmarked) [Example 171, 1-(2-Oxo-5-phenyl-2,3-dihydro-1H-benzo[e][1,4]diazepin-3-yl)-3-thiophene-3-yl-urea], for which the IC50 with RSV (setting [1]) worked out at 4.8 µM. Moreover, the “TC50 (6d)” value in the series on Hep-2 cells (in µM) is over 50.
For the compound “5-Methyl-furan-2-carboxylic acid (2-oxo-5-phenyl-2,3-dihydro-1H-benzo[e][1,4]diazepin-3-yl)-amide [Example 161]”, in the series with RSV, the IC50 came to 2 µM. In the series on Hep-2 cells, this compound showed a TC50 (2d) of 100 µM. In addition, the “TC50 (6d)” value in the series on Hep-2 cells (in µM) was 60.
Compound `O=C(NC1N=C(c2ccccc2)c2ccccc2NC1=O)C(O)Cc1ccccc1` (centres unmarked) [Example 144, 2-Hydroxy-N-(2-oxo-5-phenyl-2,3-dihydro-1H-benzo[e][1,4]diazepin-3-yl)-3-phenyl-propionamide] gave a half-maximal inhibitory concentration (IC50) in the series on RSV (setting [1]) of 5.5 µM. Further, in the series on Hep-2 cells, the TC50 (2d) was over 50 µM.
Take `COc1ccc(OC)c(C(=O)NC2N=C(c3ccccc3)c3ccccc3NC2=O)c1` (centres unmarked) [Example 126, 2,5-Dimethoxy-N-(2-oxo-5-phenyl-2,3-dihydro-1H-benzo[e][1,4]diazepin-3-yl)-benzamide]: the IC50 in the series with RSV (setting [1]) worked out at 5.4 µM. For the same compound, the “TC50 (6d)” value in the series on Hep-2 cells (in µM) is over 50.
Turning to “N-[5-(3-Chloro-phenyl)-2-oxo-5-phenyl-2,3-dihydro-1H-benzo[e][1,4]diazepin-3-yl]-isobutyramide [Example 155]”, the IC50 with RSV is 6 µM. For the same compound, in the series on Hep-2 cells, the TC50 (2d) is over 100 µM. In addition, the “TC50 (6d)” value in the series on Hep-2 cells (in µM) is reported as over 100.
`O=C(N[C@H]1N=C(c2ccccc2)c2ccccc2NC1=O)c1cc(F)cc2c1OCOC2` [Example 77b, (S)-6-Fluoro-4H-benzo[1,3]dioxine-8-carboxylic acid (2-oxo-5-phenyl-2,3-dihydro-1H-benzo[e][1,4]diazepin-3-yl)-amide] displayed a half-maximal inhibitory concentration (IC50) in the series with RSV (setting [1]) of 0.5 µM. Besides, in the series on Hep-2 cells (in µM), the “TC50 (6d)” value amounted to 33.2.
In the series on RSV (setting [1]), `Cc1cc(C(=O)NC2N=C(c3ccccc3)c3ccccc3NC2=O)oc1C` (centres unmarked) [Example 152, 4,5-Dimethyl-furan-2-carboxylic acid (2-oxo-5-phenyl-2,3-dihydro-1H-benzo[e][1,4]diazepin-3-yl)amide] came in with an IC50 of 0.3 µM. The TC50 (2d) with Hep-2 cells was over 100 µM. Moreover, the “TC50 (6d)” value in the series on Hep-2 cells (in µM) is 100.
In the case of `O=C(Nc1cccs1)NC1N=C(c2ccccc2)c2ccccc2NC1=O` (centres unmarked) [Example 170, 1-(2-Oxo-5-phenyl-2,3-dihydro-1H-benzo[e][1,4]diazepin-3-yl)-3-thiophene-2-yl-urea], the IC50 in the series on RSV (setting [1]) came out at 3.4 µM. Further, the “TC50 (6d)” value in the series on Hep-2 cells (in µM) was over 50.
For the compound `COc1cc(N)c(Cl)cc1C(=O)NC1N=C(c2ccccc2)c2ccccc2NC1=O` (centres unmarked) [Example 140, 4-Amino-5-chloro-2-methoxy-N-(2-oxo-5-phenyl-2,3-dihydro-1H-benzo[e][1,4]diazepin-3-yl)-benzamide], the IC50 in the series on RSV (setting [1]) was found to be 2.5 µM. Also, in the series on Hep-2 cells (in µM), the “TC50 (6d)” value was 68.
For `COc1cc2ccccc2cc1C(=O)N[C@H]1N=C(c2ccccc2)c2ccccc2NC1=O` [Example 82b, (S)-3-Methoxy-naphthalene-2-carboxylic acid (2-oxo-5-phenyl-2,3-dihydro-1H-benzo[e][1,4]diazepin-3-yl)-amide], in that order: 1.5 µM and over 50.
In the same order, the values of `COC(=O)c1ccc(C(=O)NC2N=C(c3ccccc3)c3ccccc3NC2=O)cc1` (centres unmarked) [Example 134, N-(2-Oxo-5-phenyl-2,3-dihydro-1H-benzo[e][1,4]diazepin-3-yl)terephthalamic acid methyl ester] are 6.5 µM and 77.1.
`O=C(NC1N=C(c2ccccc2)c2ccccc2NC1=O)c1ccccc1I` (centres unmarked) [Example 138, 2-Iodo-N-(2-oxo-5-phenyl-2,3-dihydro-1H-benzo[e][1,4]diazepin-3-yl)-benzamide] returned an IC50 in the series with RSV (setting [1]) of 8.3 µM. Further, the “TC50 (6d)” value in the series on Hep-2 cells (in µM) stood at 51.
For `CSc1ccccc1C(=O)NC1N=C(c2ccccc2)c2ccccc2NC1=O` (centres unmarked) [Example 142, 2-Methylsulfanyl-N-(2-oxo-5-phenyl-2,3-dihydro-1H-benzo[e][1,4]diazepin-3-yl)-benzamide], in that order: 9.4 µM and over 50.
For `CN(C(=O)Nc1ccccc1F)C1N=C(c2ccccc2)c2ccccc2NC1=O` (centres unmarked) [Example 146, 3-(2-Fluoro-phenyl)-1-methyl-1-(2-oxo-5-phenyl-2,3-dihydro-1H-benzo[e][1,4]diazepin-3-yl)-urea], the IC50 with RSV (setting [1]) came to 9.5 µM. In the series with Hep-2 cells, this compound had a TC50 (2d) of over 50 µM.
The compound `COc1cccc(NC(=O)NC2N=C(c3ccccc3)c3ccccc3NC2=O)c1` (centres unmarked) [Example 129, 1-(3-Methoxy-phenyl)-3-(2-oxo-5-phenyl-2,3-dihydro-1H-benzo[e][1,4]diazepin-3-yl)-urea] yielded an IC50 in the series on RSV (setting [1]) of 4.9 µM. Further, the “TC50 (6d)” value in the series on Hep-2 cells (in µM) was over 50.
On to `CC(C)COC(=O)NC1N=C(c2ccccc2)c2ccccc2NC1=O` (centres unmarked) [Example 183, (2-Oxo-5-phenyl-2,3-dihydro-1H-benzo[e][1,4]diazepin-3-yl)-carbamic acid isobutyl ester], for which the IC50 in the series on RSV (setting [1]) came to 9.88 µM. In addition, in the series on Hep-2 cells (in µM), the “TC50 (6d)” value is over 50.
In the series with RSV, `O=C(NC1N=C(c2ccccc2)c2ccccc2NC1=O)c1cc(F)cc2c1OCOC2` (centres unmarked) [Example 77a, 6-Fluoro-4H-benzo[1,3]dioxine-8-carboxylic acid (2-oxo-5-phenyl-2,3-dihydro-1H-benzo[e][1,4]diazepin-3-yl)-benzamide] showed an IC50 of 4.6 µM. In the series with Hep-2 cells (in µM), the “TC50 (6d)” value is listed as over 50.
For `O=C(N[C@H]1N=C(c2ccccc2)c2ccccc2NC1=O)c1cc2ccccc2o1` [Example 180, (S)-Benzofuran-2-carboxylic acid (2-oxo-5-phenyl-2,3-dihydro-1H-benzo[e][1,4]diazepin-3-yl)-amide], the IC50 in the series with RSV (setting [1]) is 2.6 µM. The “TC50 (6d)” value in the series on Hep-2 cells (in µM) came to 37.1.
For `CCOc1ccc(C(C)=O)cc1C(=O)N[C@H]1N=C(c2ccccc2)c2ccccc2NC1=O` [Example 76b, (S)-5-Acetyl-2-ethoxy-N-(2-oxo-5-phenyl-2,3-dihydro-1H-benzo[e][1,4]diazepin-3-yl)-benzamide], in the series with RSV (setting [1]), the half-maximal inhibitory concentration (IC50) amounted to 1.2 µM. The “TC50 (6d)” value in the series on Hep-2 cells (in µM) is over 50.
In turn, “1-(2-Oxo-5-phenyl-2,3-dihydro-1H-benzo[e][1,4]diazepin-3-yl)-3-m-tolyl-urea [Example 141]” came in with an IC50 with RSV of 4.3 µM. Also, the “TC50 (6d)” value in the series with Hep-2 cells (in µM) is reported as over 50.
For `O=C(N[C@H]1N=C(c2ccccc2)c2ccccc2NC1=O)c1cc(F)c(F)cc1F` [Example 79b, (S)-2,4,5-Trifluoro-N-(2-oxo-5-phenyl-2,3-dihydro-1H-benzo[e][1,4]diazepin-3-yl)-benzamide], the half-inhibitory concentration (IC50) in the series on RSV (setting [1]) turned out to be 5.8 µM. In addition, the “TC50 (6d)” value in the series with Hep-2 cells (in µM) is over 50.
As to `O=C(NC1N=C(c2ccccc2)c2ccccc2NC1=O)c1cc(F)c(F)cc1F` (centres unmarked) [Example 79a, 2,4,5-Trifluoro-N-(2-oxo-5-phenyl-2,3-dihydro-1H-benzo[e][1,4]diazopin-3-yl)-benzamide], the IC50 in the series with RSV was 8 µM. Moreover, in the series with Hep-2 cells (in µM), the “TC50 (6d)” value is 65.
For `CCCCNC(=O)NC1N=C(c2ccccc2)c2ccccc2NC1=O` (centres unmarked) [Example 151, 1-Butyl-3-(2-oxo-5-phenyl-2,3-dihydro-1H-benzo[e][1,4]diazepin-3-yl)-urea], the concentration for half-maximal inhibition (IC50) in the series on RSV (setting [1]) stood at 1.5 µM. The compound further displayed a TC50 (2d) in the series on Hep-2 cells of over 100 µM. Also, the “TC50 (6d)” value in the series with Hep-2 cells (in µM) is reported as over 100.
With “Piperidine-1-carboxylic acid [5-(3-chloro-phenyl)-2-oxo-5-phenyl-2,3-dihydro-1H-benzo[e][1,4]diazepin-3-yl]-amide [Example 159]”, the 50% inhibitory concentration (IC50) in the series with RSV was 2 µM. This compound also showed a TC50 (2d) with Hep-2 cells of over 100 µM. Besides, in the series on Hep-2 cells (in µM), the “TC50 (6d)” value is over 100.
Regarding `O=C(NC1N=C(c2ccccc2)c2ccccc2NC1=O)c1cnccn1` (centres unmarked) [Example 162], in the series with RSV, the IC50 worked out at 2 µM. The compound further came in with a TC50 (2d) with Hep-2 cells of over 100 µM. Further, the “TC50 (6d)” value in the series on Hep-2 cells (in µM) was over 100.
The compound `CCNC(=O)NC1N=C(c2ccccc2)c2ccccc2NC1=O` (centres unmarked) [Example 150, 1-Ethyl-3-(2-oxo-5-phenyl-2,3-dihydro-1H-benzo[e][1,4]diazepin-3-yl)-urea] returned a 50% inhibitory concentration (IC50) in the series with RSV (setting [1]) of 2 µM. The TC50 (2d) in the series with Hep-2 cells was over 100 µM. Besides, the “TC50 (6d)” value in the series with Hep-2 cells (in µM) is given as over 100.
As for `O=C(NC1CCCCC1)NC1N=C(c2ccccc2)c2ccccc2NC1=O` (centres unmarked) [Example 149, 1-Cyclohexyl-3-(2-oxo-5-phenyl-2,3-dihydro-1H-benzo[e][1,4]diazepin-3-yl)-urea], the IC50 in the series on RSV (setting [1]) is 1.5 µM. The compound also gave a TC50 (2d) in the series with Hep-2 cells of over 100 µM. Also, the “TC50 (6d)” value in the series with Hep-2 cells (in µM) is over 100.
Turning to “Cyclohexanecarboxylic acid [5-(3-methoxy-phenyl)-2-oxo-5-phenyl-2,3-dihydro-1H-benzo[e][1,4]diazepin-3-yl]-amide [Example 165]”, the half-inhibitory concentration (IC50) with RSV was determined as 2 µM. For the same compound, in the series on Hep-2 cells, the TC50 (2d) was over 100 µM. Moreover, the “TC50 (6d)” value with Hep-2 cells (in µM) is given as over 100.
For the compound `COc1cccc(C2=NC(NC(=O)C(C)C)C(=O)Nc3ccccc32)c1` (centres unmarked) [Example 163], the IC50 in the series with RSV was 5 µM. Also, in the series on Hep-2 cells, the “TC50 (2d)” value is given as over 100 and the “TC50 (6d)” value is over 100.
